# Source: publication PMC9508125, “The evolutionary advantage of an aromatic clamp in plant family 3 glycoside exo-hydrolases” (Nature Communications, 2022)
# Changes are numbered by the printed parent chain.
# Columns and labels:
# Assay type in all cases: biochemical
# [1] = biological target: T1, HvExoI W286F/W434F mutant (Hordeum vulgare, UniProt Q9XEI3, W311F/W459F); assay: Relative rates of hydrolysis of poly-, oligosaccharides and aryl-glycosides; details: substance is the substrate, nd = activity not detected
# T1 sequence (Q9XEI3 26-630 W311F/W459F): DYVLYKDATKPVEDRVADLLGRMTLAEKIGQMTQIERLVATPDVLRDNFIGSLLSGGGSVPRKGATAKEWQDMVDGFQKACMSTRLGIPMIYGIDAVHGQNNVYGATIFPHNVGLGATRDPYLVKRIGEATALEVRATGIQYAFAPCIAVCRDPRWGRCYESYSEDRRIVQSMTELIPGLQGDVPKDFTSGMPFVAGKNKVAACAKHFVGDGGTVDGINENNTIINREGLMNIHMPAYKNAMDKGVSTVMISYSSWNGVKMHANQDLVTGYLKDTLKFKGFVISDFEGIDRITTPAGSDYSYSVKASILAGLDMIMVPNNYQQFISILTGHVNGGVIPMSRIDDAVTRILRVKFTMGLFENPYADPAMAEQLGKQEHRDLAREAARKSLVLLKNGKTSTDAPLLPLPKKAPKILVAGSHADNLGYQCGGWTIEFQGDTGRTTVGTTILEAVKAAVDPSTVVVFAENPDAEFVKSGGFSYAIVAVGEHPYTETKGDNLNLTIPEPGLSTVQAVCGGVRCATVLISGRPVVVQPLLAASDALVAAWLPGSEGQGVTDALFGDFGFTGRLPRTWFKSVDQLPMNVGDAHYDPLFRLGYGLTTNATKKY
# Method in brief: (§1)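 Steady-state apparent constants are derived from proportionally weighted nonlinear regression of Michaelis-Menten data. Rates of hydrolysis of polysaccharides, oligosaccharides and aryl-glucosides are relative values obtained with 50 pmoles of near-homogeneous HvExoI. The pH and temperature dependence was tested on 0.2% (w/v) 4NP-Glc.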
# HvExoI W434A mutant = biological target: T2, HvExoI W434A mutant (Hordeum vulgare, UniProt Q9XEI3, W459A); assay: as above; details: substance is the substrate, nd = activity not detected
# T2 sequence (Q9XEI3 26-630 W459A): T1 sequence (Q9XEI3 26-630 W311F/W459F) with F286W, F434A
# Method in brief: as §1
# HvExoI W434F mutant = biological target: T3, HvExoI W434F mutant (Hordeum vulgare, UniProt Q9XEI3, W459F); assay: as above; details: substance is the substrate, nd = activity not detected
# T3 sequence (Q9XEI3 26-630 W459F): T1 sequence (Q9XEI3 26-630 W311F/W459F) with F286W
# Method in brief: as §1
# HvExoI W434H mutant = biological target: T4, HvExoI W434H mutant (Hordeum vulgare, UniProt Q9XEI3, W459H); assay: as above; details: substance is the substrate
# T4 sequence (Q9XEI3 26-630 W459H): T1 sequence (Q9XEI3 26-630 W311F/W459F) with F286W, F434H
# Method in brief: as §1
# [2] = biological target: T1, HvExoI W286F/W434F mutant; assay: Steady-state apparent kinetic constants with substrates; details: substance is the substrate
# Method: (§2) Dependency of activities of WT and mutant HvExoI on pH (McIlvaine buffers in the pH range of 3.5–8.5 at 30 °C) and temperature (100 mM sodium acetate buffer, pH 5.25, temperature range 0–80 °C, 15 min incubations) were determined using 0.2% (w/v) 4NP-Glc[21],[59]. Relative rates of hydrolysis of β-linked poly-, oligosaccharides, and aryl-glucosides were determined using near-homogenous HvExoI at 50 pmoles. […] Kinetic parameters were calculated from the analyses of Michaelis-Menten plots with Grafit 7.0.3[62] and processed by a proportional weighted fit, using nonlinear regression. The relative rates of hydrolysis, kinetic, and inhibition data were rounded to one or two decimal points (Supplementary Tables 2–4).
# WT HvExoI = WT HvExoI (Hordeum vulgare, UniProt Q9XEI3); assay: as above; details: substance is the substrate
# Sequence of WT HvExoI (Q9XEI3 entry or part of it): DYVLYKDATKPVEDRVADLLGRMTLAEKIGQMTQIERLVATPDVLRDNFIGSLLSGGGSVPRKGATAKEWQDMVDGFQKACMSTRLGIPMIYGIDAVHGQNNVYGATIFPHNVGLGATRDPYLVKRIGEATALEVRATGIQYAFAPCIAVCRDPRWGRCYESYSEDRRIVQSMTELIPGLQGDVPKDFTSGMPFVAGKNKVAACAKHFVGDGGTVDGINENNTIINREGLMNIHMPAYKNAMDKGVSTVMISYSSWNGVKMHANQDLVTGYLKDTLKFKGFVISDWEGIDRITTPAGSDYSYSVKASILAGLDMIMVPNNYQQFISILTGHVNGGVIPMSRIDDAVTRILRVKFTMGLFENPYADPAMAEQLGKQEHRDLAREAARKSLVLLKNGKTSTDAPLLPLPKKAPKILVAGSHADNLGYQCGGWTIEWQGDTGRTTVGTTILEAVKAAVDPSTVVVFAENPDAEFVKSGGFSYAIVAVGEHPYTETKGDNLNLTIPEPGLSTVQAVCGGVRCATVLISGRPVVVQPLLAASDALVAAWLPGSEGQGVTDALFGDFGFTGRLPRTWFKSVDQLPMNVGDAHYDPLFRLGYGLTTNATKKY
# Method: as §2
Compound,Activity (relative rate of hydrolysis) [1] [μmole/min per mg protein],Activity (relative rate of hydrolysis) (HvExoI W434A mutant),Activity (relative rate of hydrolysis) (HvExoI W434F mutant) [μmole/min per mg protein],Activity (relative rate of hydrolysis) (HvExoI W434H mutant) [μmole/min per mg protein],kcat [2] [s⁻¹],Km (WT HvExoI) [µM],kcat (WT HvExoI) [s⁻¹]
"O=[N+]([O-])c1ccc(O[C@@H]2O[C@H](CO)[C@@H](O)[C@H](O)[C@H]2O)cc1 [4NP-Glc, 4-nitrophenyl β-D-glucopyranoside]",0.5 ± 0.02,6.1 ± 0.1 μmole/min per mg protein,5.0 ± 0.01,2.4 ± 0.2,,,
laminarin,0.2 ± 0.01,no activity,7.8 ± 0.4,0.7 ± 0.02,0.4 ± 0.1,200 ± 20,42.1 ± 7.6
OC[C@H]1O[C@@H](O[C@H]2[C@H](O)[C@@H](CO)OC(O)[C@@H]2O)[C@H](O)[C@@H](O)[C@@H]1O (some centres unmarked) [Laminaribiose],0.5 ± 0.1,0.5 ± 0.03 μmole/min per mg protein,14.9 ± 1.7,0.8 ± 0.04,,1300 ± 120,54.2 ± 6.9
